Results reported in article PMC7558399, “In Vitro Selective Growth-Inhibitory Activities of Phytochemicals, Synthetic Phytochemical Analogs, and Antibiotics against Diarrheagenic/Probiotic Bacteria and Cancer/Normal Intestinal Cells” (Pharmaceuticals, 2020).
In brackets after ≈: the same amount, converted by molar mass. Read-outs that look alike come from different tables or passages of the source.

Columns and labels:
Type in all cases: cell-based
[1] = test system: Bifidobacterium adolescentis (DSMZ 20087); experiment: Broth microdilution MIC, B. adolescentis
[2] = test system: intestinal cancer cells (HT29 and Caco-2); experiment: MTT cytotoxicity assay, mean for intestinal cancer cells; conditions: for IC50: mean of HT29 and Caco-2, >512 replaced with 1024, read-out: x¯ -CC ± SD: mean IC50 for intestinal cancer cells; for IC80: read-out: x¯ -CC ± SD: mean IC80 for intestinal cancer cells
[3] = test system: Enterococcus faecalis (ATCC 29212); experiment: Broth microdilution MIC, E. faecalis
[4] = test system: Caco-2 (ATCC HTB 37) intestinal cancer cells; experiment: MTT cytotoxicity assay, Caco-2; conditions: Homo sapiens, Caco-2, MTT, 72 h; for IC50: read-out: IC50 ± SD; for IC80: read-out: IC80 ± SD (80% inhibitory concentration of proliferation)
[5] = test system: Listeria monocytogenes (ATCC 7644); experiment: Broth microdilution MIC, L. monocytogenes
[6] = test system: Yersinia enterocolitica (ATCC 9610); experiment: Broth microdilution MIC, Y. enterocolitica; conditions: read-out: MIC
[7] = test system: Shigella flexneri (ATCC 12022); experiment: microbe, parasite or virus in culture; conditions: ATCC12022
[8] = test system: E. coli 0175:H7 (NCTC 12900); experiment: microbe, parasite or virus in culture; conditions: Escherichia coli, NCTC12900
[9] = test system: Clostridium perfringens (DSMZ 11778); experiment: microbe, parasite or virus in culture; conditions: DSMZ11778
[10] = test system: Clostridium difficile (DSMZ 12056); experiment: microbe, parasite or virus in culture; conditions: Clostridioides difficile, DSMZ12056
[11] = test system: probiotic bacteria (9 strains); experiment: Broth microdilution MIC, probiotic bacteria as a group (mean or range over strains); conditions: read-out: x¯ -PB ± SD: mean MIC for probiotic bacteria
[12] = test system: Lactobacillus reuteri (CCM 3625); experiment: Broth microdilution MIC, L. reuteri; conditions: Limosilactobacillus reuteri, CCM3625
[13] = test system: Bifidobacterium breve (ATCC 15700); experiment: Broth microdilution MIC, B. breve; conditions: ATCC15700, growth inhibited by ≥80%, read-out: MIC
[14] = test system: Lactobacillus rhamnosus (CCM 7091); experiment: Broth microdilution MIC, L. rhamnosus; conditions: Lacticaseibacillus rhamnosus, CCM7091
[15] = test system: Escherichia coli (ATCC 25922); experiment: Broth microdilution MIC, E. coli
[16] = test system: FHs 74 Int (ATCC CCL 241) intestinal normal cells; experiment: MTT cytotoxicity assay, FHs 74 Int; conditions: FHs 74 Int (intestinal normal cells), MTT, 72 h; for IC50 / IC80: FHs74Int; for IC50: read-out: IC50 ± SD; for IC80: read-out: IC80 ± SD (80% inhibitory concentration of proliferation)
[17] = test system: Bifidobacterium animalis spp. lactis (DSMZ 10140); experiment: Broth microdilution MIC, B. animalis spp. lactis; conditions: DSMZ10140
[18] = test system: HT29 (ATCC HTB 38) intestinal cancer cells; experiment: MTT cytotoxicity assay, HT29; conditions: Homo sapiens, HT-29, HT29, MTT, 72 h; for IC50: read-out: IC50 ± SD; for IC80: read-out: IC80 ± SD (80% inhibitory concentration of proliferation)
[19] = test system: Vibrio parahaemolyticus (ATCC 17802); experiment: Broth microdilution MIC, V. parahaemolyticus; conditions: ATCC17802, growth inhibited by ≥80%, read-out: MIC
[20] = test system: diarrheagenic bacteria (12 strains); experiment: organism not typed
[21] = test system: Lactobacillus casei (DSMZ 20011); experiment: Broth microdilution MIC, L. casei; conditions: Lacticaseibacillus casei, DSMZ20011, Lactobacillus casei, read-out: MIC
[22] = test system: Bifidobacterium bifidum (ATCC 29521); experiment: Broth microdilution MIC, B. bifidum
[23] = test system: Bifidobacterium longum ssp. longum (DSMZ 20219); experiment: Broth microdilution MIC, B. longum ssp. longum; conditions: DSMZ20219; Bifidobacterium longum ssp. longum; growth inhibited by ≥80%; read-out: MIC
[24] = test system: Bacillus cereus (ATCC 14579); experiment: Broth microdilution MIC, B. cereus; conditions: median/mode, read-out: MIC
[25] = test system: Bacteroides fragilis (ATCC 25285); experiment: Broth microdilution MIC, B. fragilis
[26] = test system: Salmonella enterica ssp. enterica serovar Enteritidis (ATCC 13076); experiment: Broth microdilution MIC, Salmonella Enteritidis
[27] = test system: S. enterica ssp. enterica serovar Typhimurium (ATCC 14028); experiment: Broth microdilution MIC, Salmonella Typhimurium
[28] = DSMZ20087, growth inhibited by ≥80%, read-out: MIC
[29] = ATCC29212, growth inhibited by ≥80%, read-out: MIC
[30] = ATCC7644, growth inhibited by ≥80%, read-out: MIC
[31] = ATCC9610, growth inhibited by ≥80%
[32] = mean of 9 strains, >512 replaced with 1024
[33] = Lactobacillus reuteri, growth inhibited by ≥80%, read-out: MIC
[34] = Lactobacillus rhamnosus, growth inhibited by ≥80%, read-out: MIC
[35] = ATCC25922, growth inhibited by ≥80%, read-out: MIC
[36] = Bifidobacterium animalis spp. lactis, growth inhibited by ≥80%, read-out: MIC
[37] = mean of 12 strains, >512 replaced with 1024, read-out: x¯ -DB ± SD: mean MIC for diarrheagenic bacteria
[38] = ATCC29521, growth inhibited by ≥80%, read-out: MIC
[39] = ATCC25285, growth inhibited by ≥80%, read-out: MIC

Compound | MIC [1, 28] | IC50 [2] | IC80 [2] | MIC [3, 29] | IC50 [4] | IC80 [4] | MIC [5, 30] | MIC [6, 31] | MIC [7] | MIC [8] | MIC [9] | MIC [11, 32] | MIC [12, 33] | MIC [13] | MIC [14, 34] | MIC [15, 35] | IC50 [16] | IC80 [16] | MIC [19] | MIC [23] | also measured
Cc1ncc([N+](=O)[O-])n1CCO [MA, metronidazole] | 64 µg/mL (≈ 374 µM) | > 512 µg/mL | > 512 µg/mL | > 512 µg/mL | > 512 µg/mL | > 512 µg/mL | 512 µg/mL (≈ 2990 µM) | > 512 µg/mL | > 512 µg/mL | > 512 µg/mL | 8 µg/mL (≈ 46.7 µM) | 385 ± 458 µg/mL (≈ 2250 µM) | 256 µg/mL (≈ 1500 µM) | 32 µg/mL (≈ 187 µM) | > 512 µg/mL | 0.062 µg/mL (≈ 0.362 µM) | > 512 µg/mL | > 512 µg/mL | > 512 µg/mL | 8 µg/mL (≈ 46.7 µM) | MIC ([10]; Clostridium difficile, […], read-out: MIC): 0.5 µg/mL (≈ 2.92 µM); IC50 ± SD [16]: - (Not active (MIC/IC50/80 > 512 μg/mL, the value 1024 μg/mL was used for average calculation)); IC80 ± SD (80% inhibitory concentration of proliferation) [16]: - (Not active (MIC/IC50/80 > 512 μg/mL, the value 1024 μg/mL was used for average calculation)); MIC [17, 36]: 32 µg/mL (≈ 187 µM); IC50 [18]: > 512 µg/mL; IC80 [18]: > 512 µg/mL; MIC ([20]; both clostridial species tested, read-out: MICs): 0.5 to 8 µg/mL (≈ 2.92 to 46.7 µM); MIC [20, 37]: 651 ± 459 µg/mL (≈ 3810 µM); MIC ([21]; growth inhibited by ≥80%): > 512 µg/mL; MIC [22, 38]: > 512 µg/mL; MIC ([24]; ATCC14579, […]): 128 µg/mL (≈ 748 µM); MIC [25, 39]: 0.5 µg/mL (≈ 2.92 µM)
O=C(OC[C@H]1O[C@@H](OC(=O)c2cc(O)c(O)c(OC(=O)c3cc(O)c(O)c(O)c3)c2)[C@H](OC(=O)c2cc(O)c(O)c(OC(=O)c3cc(O)c(O)c(O)c3)c2)[C@@H](OC(=O)c2cc(O)c(O)c(OC(=O)c3cc(O)c(O)c(O)c3)c2)[C@@H]1OC(=O)c1cc(O)c(O)c(OC(=O)c2cc(O)c(O)c(O)c2)c1)c1cc(O)c(O)c(OC(=O)c2cc(O)c(O)c(O)c2)c1 [TA, tannic acid] | – | – | – | – | – | – | – | – | > 512 µg/mL | 512 µg/mL (≈ 301 µM) | 512 µg/mL (≈ 301 µM) | – | – | 256 µg/mL (≈ 150 µM) | – | – | – | – | 128 µg/mL (≈ 75.2 µM) | 128 µg/mL (≈ 75.2 µM) | MIC ([1]; DSMZ20087): > 512 µg/mL; MIC [26]: > 512 µg/mL; MIC ([3]; ATCC29212): > 512 µg/mL; MIC ([5]; ATCC7644): > 512 µg/mL; MIC ([6]; ATCC9610, […]): 512 µg/mL (≈ 301 µM); MIC [10]: > 512 µg/mL; MIC [11]: 725 ± 352 µg/mL (≈ 426 µM); MIC [12]: 512 µg/mL (≈ 301 µM); MIC [14]: > 512 µg/mL; MIC [27]: > 512 µg/mL; MIC ([15]; ATCC25922): > 512 µg/mL; MIC ([17]; Bifidobacterium animalis): > 512 µg/mL; MIC [20, 37]: 779 ± 307 µg/mL (≈ 458 µM); MIC ([21]; […]): 512 µg/mL (≈ 301 µM); MIC ([22]; ATCC29521): > 512 µg/mL; MIC ([24]; ATCC14579, […]): 512 µg/mL (≈ 301 µM); MIC ([25]; ATCC25285): > 512 µg/mL
CN(C)[C@@H]1C(O)=C(C(N)=O)C(=O)[C@@]2(O)C(O)=C3C(=O)c4c(O)cccc4[C@@](C)(O)[C@H]3C[C@@H]12 [TC, tetracycline] | 64 µg/mL (≈ 144 µM) | 232 ± 161 µg/mL (≈ 521 µM) | > 512 µg/mL | 4 µg/mL (≈ 9 µM) | 70.4 ± 15 µg/mL (≈ 158 µM) | > 512 µg/mL | 2 µg/mL (≈ 4.5 µM) | 2 µg/mL (≈ 4.5 µM) | 2 µg/mL (≈ 4.5 µM) | 4 µg/mL (≈ 9 µM) | 32 µg/mL (≈ 72 µM) | 19.8 ± 19 µg/mL (≈ 44.6 µM) | 32 µg/mL (≈ 72 µM) | 16 µg/mL (≈ 36 µM) | 8 µg/mL (≈ 18 µM) | 1 µg/mL (≈ 2.25 µM) | 14.7 ± 2.3 µg/mL (≈ 33.1 µM) | 108 ± 5 µg/mL (≈ 243 µM) | 1 µg/mL (≈ 2.25 µM) | 2 µg/mL (≈ 4.5 µM) | MIC ([26]; Salmonella Enteritidis, growth inhibited by ≥80%, read-out: MIC): 4 µg/mL (≈ 9 µM); MIC ([27]; Salmonella Typhimurium, growth inhibited by ≥80%, read-out: MIC): 4 µg/mL (≈ 9 µM); MIC [17, 36]: 32 µg/mL (≈ 72 µM); IC50 [18]: 393 ± 20 µg/mL (≈ 884 µM); IC80 [18]: > 512 µg/mL; MIC ([20]; read-out: MICs): 1 to 4 µg/mL (≈ 2.25 to 9 µM); MIC ([20]; read-out: x¯ -DB ± SD: mean MIC for diarrheagenic bacteria): 4.8 ± 8 µg/mL (≈ 10.8 µM); MIC ([21]; growth inhibited by ≥80%): 8 µg/mL (≈ 18 µM); MIC [22, 38]: 16 µg/mL (≈ 36 µM); MIC ([24]; ATCC14579, growth inhibited by ≥80%): 0.5 µg/mL (≈ 1.13 µM); MIC [25, 39]: 0.5 µg/mL (≈ 1.13 µM)
